Experiment [1] has as its system phosphorylated 4E-BP1 Thr37/46 (p4E-BP1 Thr37/46), mTORC1 activity, PC3 cells. Briefly: mTOR target engagement assay, immunofluorescent cell-based, p4E-BP1 Thr37/46 readout (mTORC1 activity). The settings on record: Homo sapiens, read-out: p4E-BP1 Thr37/46 IC50. In outline: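 Read-out is fluorescence intensity of immunostained p4E-BP1 Thr37/46 in fixed PC3 cells, fitted to a logistic curve for IC50 with DMSO-only wells as top. Cells had been exposed to serial compound dilutions for ninety minutes at 37° C in 5% FBS medium with 0.25% DMSO.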

The subject of experiment [2] is phosphorylated AKT Ser473 (pAKT S473), mTORC2 activity, PC3 cells. Briefly: mTOR target engagement assay, immunofluorescent cell-based, pAKT S473 readout (mTORC2 activity). The settings on record: Homo sapiens. In a few lines:
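After blocking, cells were stained overnight at 4 °C with anti-pAKT S473 antibody, then a fluorescent secondary; inhibition was read as reduced fluorescence intensity.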

Setting [3] is: PC-3, PC3 cells, compound treatment ninety minutes at 37° C.

Read-outs that look alike come from different tables or passages of the source. Where only a bound is given, the exact number is not on record here.

As to `Cc1csc(-c2ccc(-c3cnn4c(N)c(S(C)(=O)=O)c([C@@H]5C[C@H]6CC[C@@H](C5)N6C(=O)c5nnc[nH]5)nc34)cn2)n1` [Compound 3.192, ((1R,3s,5S)-3-(7-amino-6-(methylsulfonyl)-3-(6-(4-methylthiazol-2-yl)pyridin-3-yl)pyrazolo[1,5-a]pyrimidin-5-yl)-8-azabicyclo[3.2.1]octan-8-yl)(4H-1,2,4-triazol-3-yl)methanone], the IC50 in experiment [1] (PC-3, Table 3-1, PC3 cells) lay in the range of 0.1 to 1 µM; in experiment [2] (PC-3, Table 3-1, PC3 cells), 0.1 to 1 µM.
On to `CC(=O)c1c([C@@H]2C[C@H]3CC[C@@H](C2)N3C(=O)N2CCOCC2)nc2c(-c3ccc(-c4ccccc4)nc3)cnn2c1N` [Compound 1.1.122, 1-(7-amino-5-((1R,3s,5S)-8-(morpholine-4-carbonyl)-8-azabicyclo[3.2.1]octan-3-yl)-3-(6-phenylpyridin-3-yl)pyrazolo[1,5-a]pyrimidin-6-yl)ethanone], for which the IC50 in experiment [1] (setting [3]) and in experiment [2] (setting [3]) was 1 to 10 µM in each case.
On to `CS(=O)(=O)c1c([C@@H]2C[C@H]3CC[C@@H](C2)N3C(N)=O)nc2c(-c3ccc(-c4ccc(F)cc4)nc3)cnn2c1N` [Compound 3.126, (1R,3s,5S)-3-(7-amino-3-(6-(4-fluorophenyl)pyridin-3-yl)-6-(methylsulfonyl)pyrazolo[1,5-a]pyrimidin-5-yl)-8-azabicyclo[3.2.1]octane-8-carboxamide], for which the IC50 in experiment [1] (PC-3, Table 3-1, PC3 cells) lay within 0.001 to 0.1 µM; in experiment [2] (PC-3, Table 3-1, PC3 cells) it was 0.001 to 0.1 µM.
For the molecule `CS(=O)(=O)c1c([C@@H]2C[C@H]3CC[C@@H](C2)N3C(=O)c2ccn[nH]2)nc2c(-c3cn[nH]c3)cnn2c1N` [Compound 3.117, ((1R,3a,4S)-3-(7-amino-6-(methylsulfonyl)-3-(1H-pyrazol-4-yl)pyrazolo[1,5-a]pyrimidin-5-yl)-8-azabicyclo[3.2.1]octan-8-yl)(1H-pyrazol-5-yl)methanone], the IC50 is above 10 µM in experiment [1] (PC-3, Table 3-1, PC3 cells) and above 10 µM in experiment [2] (PC-3, Table 3-1, PC3 cells).
On to `Cc1nnc(C(=O)N2[C@@H]3CC[C@H]2C[C@H](c2nc4c(-c5ccc(-c6nc7c(s6)CCC7)nc5)cnn4c(N)c2S(C)(=O)=O)C3)[nH]1` [Compound 3.195, ((1R,3s,5S)-3-(7-amino-3-(6-(5,6-dihydro-4H-cyclopenta[d]thiazol-2-yl)pyridin-3-yl)-6-(methylsulfonyl)pyrazolo[1,5-a]pyrimidin-5-yl)-8-azabicyclo[3.2.1]octan-8-yl)(5-methyl-4H-1,2,4-triazol-3-yl)methanone], for which the IC50 in experiment [1] (PC-3, Table 3-1, PC3 cells) is 1 to 10 µM; in experiment [2] (PC-3, Table 3-1, PC3 cells) it was 1 to 10 µM.
As for `CC(=O)c1c([C@@H]2C[C@H]3CC[C@@H](C2)N3C(=O)c2n[nH]c(N)n2)nc2c(-c3ccc(-c4ccccc4)nc3)cnn2c1N` [Compound 1.1.140, 1-(7-amino-5-((1R,3s,5S)-8-(5-amino-1H-1,2,4-triazole-3-carbonyl)-8-azabicyclo[3.2.1]octan-3-yl)-3-(6-phenylpyridin-3-yl)pyrazolo[1,5-a]pyrimidin-6-yl)ethanone], the IC50 in experiment [1] (setting [3]) and in experiment [2] (setting [3]) was 0.001 to 0.1 µM in each case.
Regarding `COc1ccc(-c2ccc(-c3cnn4c(N)c(S(C)(=O)=O)c([C@@H]5C[C@H]6CC[C@@H](C5)N6C(=O)CO)nc34)cn2)cc1` [Compound 3.36, 1-((1R,3s,5S)-3-(7-amino-3-(6-(4-methoxphenyl)pyridin-3-yl)-6-(methylsulfonyl)pyrazolo[1,5-a]pyrimidin-5-yl)-8-azabicyclo[3.2.1]octan-8-yl)-2-hydroxyethanone], the IC50 in experiment [1] (PC-3, Table 3-1, PC3 cells) is 0.001 to 0.1 µM; in experiment [2] (PC-3, Table 3-1, PC3 cells) it was 0.001 to 0.1 µM.
As to `CNC(=O)N1[C@@H]2CC[C@H]1C[C@H](c1nc3c(-c4ccc(-c5ccccc5)nc4)cnn3c(N)c1S(C)(=O)=O)C2` [Compound 3.30, (1R,3s,5S)-3-(7-amino-6-(methylsulfonyl)-3-(6-phenylpyridin-3-yl)pyrazolo[1,5-a]pyrimidin-5-yl)-N-methyl-8-azabicyclo[3.2.1]octane-8-carboxamide], the IC50 in experiment [1] (PC-3, Table 3-1, PC3 cells) lay within 0.1 to 1 µM; in experiment [2] (PC-3, Table 3-1, PC3 cells), 0.1 to 1 µM.
Regarding `CC(=O)c1c([C@@H]2C[C@H]3CC[C@@H](C2)N3C(=O)c2nnc[nH]2)nc2c(-c3ccc(-c4ncc[nH]4)cc3)cnn2c1N` [Compound 6.43, 1-(3-(4-(1H-imidazol-2-yl)phenyl)-5-((1R,3s,5S)-8-(4H-1,2,4-triazole-3-carbonyl)-8-azabicyclo[3.2.1]octan-3-yl)-7-aminopyrazolo[1,5-a]pyrimidin-6-yl)ethanone], the IC50 in experiment [1] (PC-3, Table 6-1, PC3 cells) is 0.001 to 0.1 µM; in experiment [2] (PC-3, Table 6-1, PC3 cells) it was 0.001 to 0.1 µM.
Turning to `CNC(=O)c1ccc(-c2cnn3c(N)c(S(C)(=O)=O)c([C@@H]4C[C@H]5CC[C@@H](C4)N5C(=O)c4nc[nH]n4)nc23)cn1` [Compound 3.17, 5-(5-((1R,3s,5S)-8-(1H-1,2,4-triazole-3-carbonyl)-8-azabicyclo[3.2.1]octan-3-yl)-7-amino-6-(methylsulfonyl)pyrazolo[1,5-a]pyrimidin-3-yl)-N-methylpicolinamide], the IC50 was 1 to 10 µM in experiment [1] (PC-3, Table 3-1, PC3 cells) and above 10 µM in experiment [2] (PC-3, Table 3-1, PC3 cells).
Regarding `CC(=O)c1c([C@@H]2C[C@H]3CC[C@@H](C2)N3C(=O)CO)nc2c(-c3cnc(-c4cc[nH]n4)c(F)c3)cnn2c1N` [Compound 1.1.111, 1-((1R,3s,5S)-3-(6-acetyl-7-amino-3-(5-fluoro-6-(1H-pyrazol-3-yl)pyridin-3-yl)pyrazolo[1,5-a]pyrimidin-5-yl)-8-azabicyclo[3.2.1]octan-8-yl)-2-hydroxyethanone], the IC50 in experiment [1] (setting [3]) and in experiment [2] (setting [3]) was 1 to 10 µM throughout.
`CS(=O)(=O)c1c([C@@H]2C[C@H]3CC[C@@H](C2)N3c2ncncc2N)nc2c(-c3ccc(-c4ccccc4)nc3)cnn2c1N` [Compound 8.64, 5-((1R,3s,5S)-8-(5-aminopyrimidin-4-yl)-8-azabicyclo[3.2.1]octan-3-yl)-6-(methylsulfonyl)-3-(6-phenylpyridin-3-yl)pyrazolo[1,5-a]pyrimidin-7-amine]: the IC50 was in the range of 1 to 10 µM in experiment [1] (PC-3, PC3 cells) and 0.1 to 1 µM in experiment [2] (PC-3, PC3 cells).
In the case of `COC(=O)N1[C@@H]2CC[C@H]1C[C@H](c1nc3c(-c4ccc(-c5ncc[nH]5)nc4)cnn3c(N)c1C(C)=O)C2` [Compound 6.25, (1R,3s,5S)-methyl 3-(3-(6-(1H-imidazol-2-yl)pyridin-3-yl)-6-acetyl-7-aminopyrazolo[1,5-a]pyrimidin-5-yl)-8-azabicyclo[3.2.1]octane-8-carboxylate], the IC50 was in the range of 0.001 to 0.1 µM in experiment [1] (PC-3, Table 6-1, PC3 cells) and 0.001 to 0.1 µM in experiment [2] (PC-3, Table 6-1, PC3 cells).
On to `CS(=O)(=O)c1c([C@@H]2C[C@H]3CC[C@@H](C2)N3C(=O)c2nnc[nH]2)nc2c(-c3cnc(-c4ccccc4)c(O)c3)cnn2c1N` [Compound 3.22, ((1R,3s,5S)-3-(7-amino-3-(5-hydroxy-6-phenylpyridin-3-yl)-6-(methylsulfonyl)pyrazolo[1,5-a]pyrimidin-5-yl)-8-azabicyclo[3.2.1]octan-8-yl)(4H-1,2,4-triazol-3-yl)methanone], for which the IC50 lay within 1 to 10 µM in experiment [1] (PC-3, Table 3-1, PC3 cells) and 0.1 to 1 µM in experiment [2] (PC-3, Table 3-1, PC3 cells).
For `Nc1cc([C@@H]2C[C@H]3CC[C@@H](C2)N3C(=O)[C@@H]2CCCN2)nc2c(-c3ccc(-c4ccccc4)nc3)cnn12` [Compound 2.20], the IC50 in experiment [1] (setting [3]) and in experiment [2] (setting [3]) was 1 to 10 µM in each case.
For `CC(=O)c1c([C@@H]2C[C@H]3CC[C@@H](C2)N3S(C)(=O)=O)nc2c(-c3ccc(-c4ncc[nH]4)nc3)cnn2c1N` [Compound 6.10, 1-(3-(6-(1H-imidazol-2-yl)pyridin-3-yl)-7-amino-5-((1R,3s,5S)-8-(methylsulfonyl)-8-azabicyclo[3.2.1]octan-3-yl)pyrazolo[1,5-a]pyrimidin-6-yl)ethanone], the IC50 fell in the range of 0.001 to 0.1 µM in experiment [1] (PC-3, Table 6-1, PC3 cells) and 0.001 to 0.1 µM in experiment [2] (PC-3, Table 6-1, PC3 cells).
Regarding `CS(=O)(=O)c1c([C@@H]2C[C@H]3CC[C@@H](C2)N3C(=N)N)nc2c(-c3ccc(-c4ccccc4)nc3)cnn2c1N` [Compound 8.73, (1R,3s,5S)-3-(7-amino-6-(methylsulfonyl)-3-(6-phenylpyridin-3-yl)pyrazolo[1,5-a]pyrimidin-5-yl)-8-azabicyclo[3.2.1]octane-8-carboximidamide], the IC50 in experiment [1] (PC-3, PC3 cells) lay within 1 to 10 µM; in experiment [2] (PC-3, PC3 cells) it was 1 to 10 µM.
With `Cc1n[nH]c(CC(=O)N2[C@@H]3CC[C@H]2C[C@H](c2nc4c(-c5ccc(-c6ccccc6)nc5)cnn4c(N)c2S(C)(=O)=O)C3)n1` [Compound 3.82, 1-((1R,3s,5S)-3-(7-amino-6-(methylsulfonyl)-3-(6-phenylpyridin-3-yl)pyrazolo[1,5-a]pyrimidin-5-yl)-8-azabicyclo[3.2.1]octan-8-yl)-2-(3-methyl-1H-1,2,4-triazol-5-yl)ethanone], the IC50 in experiment [1] (PC-3, Table 3-1, PC3 cells) lay within 0.1 to 1 µM; in experiment [2] (PC-3, Table 3-1, PC3 cells), 0.1 to 1 µM.
Turning to `COCCOc1ccc(-c2ccc(-c3cnn4c(N)c(C(C)=O)c([C@@H]5C[C@H]6CC[C@@H](C5)N6C(=O)c5nnc[nH]5)nc34)cn2)cc1` [Compound 1.1.69, 1-(5-((1R,3s,5S)-8-(4H-1,2,4-triazole-3-carbonyl)-8-azabicyclo[3.2.1]octan-3-yl)-7-amino-3-(6-(4-(2-methoxyethoxy)phenyl)pyridin-3-yl)pyrazolo[1,5-a]pyrimidin-6-yl)ethanone], the IC50 in experiment [1] (setting [3]) and in experiment [2] (setting [3]) was 0.1 to 1 µM each time.
As to `COc1ccc(-c2ccc(-c3cnn4c(N)cc([C@@H]5C[C@H]6CC[C@@H](C5)N6C(=O)c5nnc[nH]5)nc34)cn2)cc1F` [Compound 2.5, ((1R,3s,5S)-3-(7-amino-3-(6-(3-fluoro-4-methoxyphenyl)pyridin-3-yl)pyrazolo[1,5-a]pyrimidin-5-yl)-8-azabicyclo[3.2.1]octan-8-yl)(4H-1,2,4-triazol-3-yl)methanone], the results for the IC50 in experiment [1] (setting [3]) and in experiment [2] (setting [3]) were 1 to 10 µM and 0.1 to 1 µM, respectively.

(Values after US9227971B2, “Pyrazolo[1,5-a]pyrimidine compounds as mTOR inhibitors” (Merck Sharp & Dohme Corp., priority 2010, dated 2016).)
